We go through 10 compounds from patent US9115143B2, “Substituted indole derivatives as gamma secretase modulators” (Janssen Pharmaceuticals, Inc., priority 2011, dated 2015).

The test system of experiment [1] is Aβ42. Kind of experiment: In vivo efficacy B-1b: brain soluble Aβ42, MSD electrochemiluminescence multiplex. To be noted: mouse brain soluble fraction, dose 30 mg/kg oral dosing, 4 h after dose; untreated control set at 100; read-out: Aβ42 (% vs Ctrl)_Mean. The text has this:
(§1) To determine whether acute administration of an Aβ42 lowering agent would reduce Aβ42 levels in vivo, non-transgenic rodents, e.g. mice or rats were used. Animals treated with the Aβ42 lowering agent were examined and compared to those untreated or treated with vehicle and brain levels of soluble Aβ42, Aβ40, Aβ38, and Aβ37 were quantitated by Meso Scale Discovery's (MSD) electrochemiluminescence detection technology. Treatment periods varied from hours (h) to days and were adjusted based on the results of the Aβ42 lowering once a time course of onset of effect could be established.
(§2) A typical protocol for measuring Aβ42 lowering in vivo is shown but it is only one of many variations that could be used to optimize the levels of detectable Aβ. For example, Aβ42 lowering compounds were formulated in 20% of Captisol® (a sulfobutyl ether of β-cyclodextrin) in water or 20% hydroxypropyl β cyclodextrin. The Aβ42 lowering agents were administered as a single oral dose or by any acceptable route of administration to overnight fasted animals. After 4 h, the animals were sacrificed and Aβ42 levels were analysed.
(§3) Blood was collected by decapitation and exsanguinations in EDTA-treated collection tubes. Blood was centrifuged at 1900 g for 10 minutes (min) at 4° C. and the plasma recovered and flash frozen for later analysis. The brain was removed from the cranium and hindbrain. The cerebellum was removed and the left and right hemisphere were separated. The left hemisphere was stored at −18° C. for quantitative analysis of test compound levels. The right hemisphere was rinsed with phosphate-buffered saline (PBS) buffer and immediately frozen on dry ice and stored at −80° C. until homogenization for biochemical assays.
(§4) Mouse brains from non-transgenic animals were resuspended in 8 volumes of 0.4% DEA (diethylamine)/50 mM NaCl containing protease inhibitors (Roche-11873580001 or 04693159001) per gram of tissue, e.g. for 0.158 g brain, add 1.264 ml of 0.4% DEA. All samples were homogenized in the FastPrep-24 system (MP Biomedicals) using lysing matrix D (MPBio #6913-100) at 6 m/s for 20 seconds. Homogenates were centrifuged at 20800×g for 5 min and supernatants collected. Supernatants were centrifuged at 221.300×g for 50 min. The resulting high speed supernatants were then transferred to fresh eppendorf tubes. Nine parts of supernatant were neutralized with 1 part 0.5 M Tris-HCl pH 6.8 and used to quantify Aβ.
(§5) To quantify the amount of Aβ42, Aβ40, Aβ38, and Aβ37 in the soluble fraction of the brain homogenates, simultaneous specific detection of Aβ42, Aβ40, Aβ38, and Aβ37 was performed using MSD's electro-chemiluminescence multiplex detection technology. In this assay purified monoclonal antibodies specific for Abeta37 (JRD/Aβ37/3), Abeta38 (J&JPRD/Aβ38/5), Abeta40 (JRF/cAβ40/28), and Abeta42 (JRF/cAβ42/26) were coated on MSD 4-plex plates. Briefly, the standards (a dilution of synthetic Aβ42, Aβ40, Aβ38, and Aβ37) were prepared in 1.5 ml Eppendorf tube in Ultraculture, with final concentrations ranging from 10000 to 0.3 pg/m. The samples and standards were co-incubated with Sulfo-tag labelled JRF/rAβ/2 antibody to the N-terminus of Aβ as detector antibody. 50 μl of conjugate/sample or conjugate/standards mixtures were then added to the antibody-coated plate. The plate was allowed to incubate overnight at 4° C. in order to allow formation of the antibody-amyloid complex. Following this incubation and subsequent wash steps the assay was finished by adding read buffer according to the manufacturer's instructions (Meso Scale Discovery, Gaitherburg, Md.).
(§6) The SULFO-TAG emits light upon electrochemical stimulation initiated at the electrode. MSD Sector instrument SI6000 was used for signal read-out.
In this model a Aβ42 lowering compared to untreated animals would be advantageous, in particular a Aβ42 lowering with at least 10%, more in particular a Aβ42 lowering with at least 20%. […]

In experiment [2] the test system is Aβ38. As to the kind of experiment: In vivo efficacy B-2b: brain soluble Aβ38, MSD electrochemiluminescence multiplex. Conditions: mouse brain soluble fraction, dose 30 mg/kg oral dosing, 4 h after dose; untreated control set at 100; read-out: Aβ38 (% vs Ctrl)_Mean.
Text: To determine whether acute administration of an Aβ38 increasing agents would increase Aβ38 levels in vivo, non-transgenic rodents, e.g. mice or rats were used. Animals treated with the Aβ38 increasing agents were examined and compared to those untreated or treated with vehicle and brain levels of soluble Aβ42, Aβ40, Aβ38, and Aβ37 were quantitated by MSD electrochemiluminescence detection technology. Treatment periods varied from hours (h) to days and were adjusted based on the results of the Aβ38 increase once a time course of onset of effect could be established.
A typical protocol for measuring Aβ38 increase in vivo is shown but it is only one of many variations that could be used to optimize the levels of detectable Aβ. For example, Aβ38 increasing agents were formulated in 20% of Captisol® (a sulfobutyl ether of β-cyclodextrin) in water or 20% hydroxypropyl β cyclodextrin. The Aβ38 increasing agents were administered as a single oral dose or by any acceptable route of administration to overnight fasted animals. After 4 h, the animals were sacrificed and Aβ38 levels were analysed.
as §3, §4, §5, §6
In this model a Aβ38 increase compared to untreated animals would be advantageous, in particular a Aβ38 increase with at least 10%, more in particular a Aβ38 increase with at least 20%. […]

Experiment [3] concerns Aβtotal. As to the kind of experiment: Screening for γ-secretase-modulating activity: Aβtotal in supernatant of SKNBE2 cells carrying hAPP 695 wild type (Alphalisa). Format: cell-based, human. Conditions: overnight incubation, Alphalisa on supernatant. In short, it runs like this:
(§7)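 SKNBE2 human neuroblastoma cells expressing wild-type hAPP 695 (10^4/well) were incubated overnight at 37 °C, 5% CO2 with compound at several concentrations. Supernatant Aβ42 and Aβtotal measured by AlphaLISA sandwich immunoassays; IC50 from 4-parameter fit of percent of untreated control versus log concentration.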
In general terms: Bead proximity is the source of the signal in Alpha formats.

Experiment [4] has as its system Aβ40. Kind of experiment: In vivo efficacy B-1b/B-2b: brain soluble Aβ40, MSD electrochemiluminescence multiplex. To be noted: mouse brain soluble fraction, dose 30 mg/kg oral dosing, 4 h after dose; untreated control set at 100; read-out: Aβ40 (% vs Ctrl)_Mean.
Text: as §1, §2, §3, §4, §5, §6
The results are shown in Table 5 (dose 30 mg/kg oral dosing) (value for untreated animals as control (Ctrl) was set at 100): […]

Experiment [5] relates to Aβ42. As to the kind of experiment: Screening for γ-secretase-modulating activity: Aβ42 in supernatant of SKNBE2 cells carrying hAPP 695 wild type (Alphalisa). Format: cell-based, human. To be noted: SKNBE2 human neuroblastoma cells carrying hAPP 695 wild type; overnight incubation; Alphalisa on supernatant. In short, it runs like this:
as §7

Setting [6] is: Homo sapiens, SKNBE2, SKNBE2 human neuroblastoma cells carrying hAPP 695 wild type.
Where [7] appears, read: SKNBE2 human neuroblastoma cells carrying hAPP 695 wild type.

By IC50 is commonly meant the concentration needed to halve the response being measured. Take `COc1c(C#N)ccc2[nH]c(-c3cn4c(n3)C(c3ccccc3C(F)(F)F)OCC4)cc12` (single isomer, unassigned) [Compound 44, 2-[5,6-dihydro-8-[2-(trifluoromethyl)phenyl]-8H-imidazo[2,1-c][1,4]oxazin-2-yl]-4-methoxy-1H-indole-5-carbonitrile]: the response vs control in vivo at 30 mg/kg amounted to 27% in experiment [1], 110% in experiment [2] and 31% in experiment [4]. Besides, the 50% inhibitory concentration (IC50) in experiment [3] (setting [6]) was greater than 10000 nM; in experiment [5], 21 nM.

On to `COc1c(C#N)ccc2[nH]c(-c3nc4n(n3)CCOC4c3ccccc3C(F)(F)F)cc12` (single isomer, unassigned) [Compound 56, 2-[5,6-dihydro-8-[2-(trifluoromethyl)phenyl]-8H-[1,2,4]triazolo[5,1-c][1,4]oxazin-2-yl]-4-methoxy-1H-indole-5-carbonitrile], for which the response vs control in vivo at 30 mg/kg came to 54% in experiment [1], 139% in experiment [2] and 91% in experiment [4]. The IC50 in experiment [3] (setting [6]) is greater than 10000 nM; in experiment [5], 45 nM.

For `COc1c(C#N)ccc2[nH]c(-c3cn4c(n3)C(c3c(F)cccc3Cl)OCC4)cc12` (single isomer, unassigned) [Compound 122, 2-[8-(2-chloro-6-fluorophenyl)-5,6-dihydro-8H-imidazo[2,1-c][1,4]oxazin-2-yl]-4-methoxy-1H-indole-5-carbonitrile], the values for the response vs control in vivo at 30 mg/kg in experiment [1], in experiment [2] and in experiment [4] were 74%, 145% and 90%, respectively. Also, the IC50 in experiment [3] (setting [6]) was greater than 10000 nM; in experiment [5] it was 39 nM.

Regarding `COc1c(C#N)ccc2[nH]c(-c3cn4c(n3)C(c3cccc(F)c3C(F)(F)F)OCC4)cc12` (single isomer, unassigned) [Compound 131, 2-[8-[3-fluoro-2-(trifluoromethyl)phenyl]-5,6-dihydro-8H-imidazo[2,1-c][1,4]oxazin-2-yl]-4-methoxy-1H-indole-5-carbonitrile], the figures for the response vs control in vivo at 30 mg/kg in experiment [1], in experiment [2] and in experiment [4] were 62%, 144% and 72%, respectively. In addition, the IC50 in experiment [3] (setting [6]) stood at 6460 nM; in experiment [5] it was 27 nM.

On to `COc1c(C#N)ccc2[nH]c(-c3nc4n(n3)CCOC4c3cccc(F)c3C(F)(F)F)cc12` (single isomer, unassigned) [Compound 133, 2-[8-[3-fluoro-2-(trifluoromethyl)phenyl]-5,6-dihydro-8H-[1,2,4]triazolo[5,1-c][1,4]oxazin-2-yl]-4-methoxy-1H-indole-5-carbonitrile], for which the response vs control in vivo at 30 mg/kg in experiment [1] came out at 98%; in experiment [2], 119%; in experiment [4], 107%. The IC50 is greater than 10000 nM in experiment [3] (setting [6]) and 59 nM in experiment [5].

Regarding `COc1c(C#N)ccc2[nH]c(-c3nc4n(n3)CCOC4c3cccc(C)c3F)cc12` (single isomer, unassigned) [Compound 148, 2-[8-(2-fluoro-3-methylphenyl)-5,6-dihydro-8H-[1,2,4]triazolo[5,1-c][1,4]oxazin-2-yl]-4-methoxy-1H-indole-5-carbonitrile], the response vs control in vivo at 30 mg/kg in experiment [1] came to 110%; in experiment [2], 132%; in experiment [4] it was 118%. The IC50 is greater than 10000 nM in experiment [3] (setting [6]) and 74 nM in experiment [5].

Consider `COc1c(C#N)ccc2[nH]c(-c3cn4c(n3)C(c3cccc(F)c3C)OCC4)cc12` (centres unmarked) [Compound 41, 2-[8-(3-fluoro-2-methylphenyl)-5,6-dihydro-8H-imidazo[2,1-c][1,4]oxazin-2-yl]-4-methoxy-1H-indole-5-carbonitrile], for which the response vs control in vivo at 30 mg/kg was found to be 34% in experiment [1], 140% in experiment [2] and 35% in experiment [4]. Moreover, the IC50 is greater than 10000 nM in experiment [3] (setting [7]) and 20 nM in experiment [5].

As to `COc1c(C#N)ccc2[nH]c(-c3nc4n(n3)CCCOC4c3ccc(F)cc3C)cc12` (centres unmarked) [Compound 53, 2-[9-(4-fluoro-2-methylphenyl)-6,7-dihydro-5H,9H-[1,2,4]triazolo[5,1-c][1,4]oxazepin-2-yl]-4-methoxy-1H-indole-5-carbonitrile], the response vs control in vivo at 30 mg/kg was 74% in experiment [1], 78% in experiment [2] and 79% in experiment [4]. Moreover, the IC50 in experiment [3] (setting [7]) was greater than 10000 nM; in experiment [5], 35 nM.

In the case of `COc1c(C#N)ccc2[nH]c(-c3cn4c(n3)C(c3c(F)cccc3C(F)(F)F)OCC4)cc12` (centres unmarked) [Compound 153, 2-[8-[2-fluoro-6-(trifluoromethyl)phenyl]-5,6-dihydro-8H-imidazo[2,1-c][1,4]oxazin-2-yl]-4-methoxy-1H-indole-5-carbonitrile], the response vs control in vivo at 30 mg/kg in experiment [1] came out at 60%; in experiment [2], 236%; in experiment [4] it was 76%. Further, the IC50 in experiment [3] (setting [7]) was greater than 10000 nM; in experiment [5] it was 36 nM.

With `COc1c(C#N)ccc2[nH]c(-c3cn4c(n3)C(c3ccc(F)c(Cl)c3)OCC4)cc12` (centres unmarked) [Compound 154, 2-[8-(3-chloro-4-fluorophenyl)-5,6-dihydro-8H-imidazo[2,1-c][1,4]oxazin-2-yl]-4-methoxy-1H-indole-5-carbonitrile], the results for the response vs control in vivo at 30 mg/kg in experiment [1], in experiment [2] and in experiment [4] were 90%, 170% and 101%, respectively. The values for the IC50 in experiment [3] (setting [7]) and in experiment [5] were greater than 10000 nM and 65 nM, respectively.
